# Experimental data taken from patent US12180191B1, “2-[(1H-benzimidazol-2-yl)imino]-5,5-diphenylimidazolidin-4-one as an antimicrobial compound” (KING FAISAL UNIVERSITY, priority 2023, dated 2024).
# What was measured:
# Format in all cases: cell-based
# Aspergillus flavus = assay: Agar plate disc-diffusion, antifungal inhibition zone; settings: Sabouraud's dextrose agar, 72 hours
# Procedure: (§1) The agar plate disc-diffusion method was applied. Sterilized filter papers (6 mm in diameter) were wetted with 10 μL of a solution of 2-[(1H-benzimidazol-2-yl)imino]-5,5-diphenylimidazolidin-4-one (3) to be tested, containing 10 mg/mL in DMSO, and the discs were allowed to air dry. The discs were then placed onto the surface of agar plates (nutrient agar for bacteria and Sabouraud's dextrose agar for fungi) seeded with the test organism. Each plate contained 15 mL of the agar medium, previously seeded with 0.2 mL of the broth culture of each organism pregrown for 18 hours. The plates were incubated at 37° C. for 48 hours, and 72 hours for fungi. The inhibition zones were measured in millimeter. Discs impregnated with DMSO were used as a control, and its inhibition zone was subtracted from the tested compound actual inhibition zone.
# (§2) The results of the antimicrobial testing can be observed in Tables 1 and 2, below, with ciprofloxacin serving as a reference.
# Escherichia coli = assay: Agar plate disc-diffusion, antibacterial inhibition zone; settings: nutrient agar, 37° C., 48 hours
# Procedure: as §1, with “Sterilized filter papers (6 mm in diameter) were wetted with 10 μL of a solution of 2-[(1H-benzimidazol-2-yl)imino]-5,5-diphenylimidazolidin-4-one (3) to be tested, containing 10 mg/mL in DMSO, and the discs were allowed to air dry.” left out
# as §2
# Pseudomonas aeruginosa = assay: as above; settings: nutrient agar, 37° C., 48 hours
# Procedure: as §1, with “Sterilized filter papers (6 mm in diameter) were wetted with 10 μL of a solution of 2-[(1H-benzimidazol-2-yl)imino]-5,5-diphenylimidazolidin-4-one (3) to be tested, containing 10 mg/mL in DMSO, and the discs were allowed to air dry.” left out
# as §2
# Bacillus cereus = assay: as above; settings: nutrient agar, 37° C., 48 hours
# Procedure: as §1, with “Sterilized filter papers (6 mm in diameter) were wetted with 10 μL of a solution of 2-[(1H-benzimidazol-2-yl)imino]-5,5-diphenylimidazolidin-4-one (3) to be tested, containing 10 mg/mL in DMSO, and the discs were allowed to air dry.” left out
# as §2
# [1] = tested on: Chrysosporium keratinophilum; assay: Agar plate disc-diffusion, antifungal inhibition zone; settings: Sabouraud's dextrose agar, 72 hours
# Procedure: as §1, with “Sterilized filter papers (6 mm in diameter) were wetted with 10 μL of a solution of 2-[(1H-benzimidazol-2-yl)imino]-5,5-diphenylimidazolidin-4-one (3) to be tested, containing 10 mg/mL in DMSO, and the discs were allowed to air dry.” left out
# as §2
# Staphylococcus aureus = assay: Agar plate disc-diffusion, antibacterial inhibition zone; settings: nutrient agar, 37° C., 48 hours
# Procedure: as §1, §2
# [2] = A = concentration of comp. = 10,000 μL
# [3] = B = concentration of comp. = 30.000 μL
# [4] = C = concentration of comp. = 50,000 μL
Compound,"inhibition zone, Aspergillus flavus (Aspergillus flavus; [2]) [millimeter]","inhibition zone, Aspergillus flavus (Aspergillus flavus; [3]) [millimeter]","inhibition zone, Aspergillus flavus (Aspergillus flavus; [4]) [millimeter]","inhibition zone, Escherichia coli (Escherichia coli; [2]) [millimeter]","inhibition zone, Escherichia coli (Escherichia coli; [3]) [millimeter]","inhibition zone, Escherichia coli (Escherichia coli; [4]) [millimeter]","inhibition zone, Pseudomonas aeruginosa (Pseudomonas aeruginosa; [2]) [millimeter]","inhibition zone, Pseudomonas aeruginosa (Pseudomonas aeruginosa; [3]) [millimeter]","inhibition zone, Pseudomonas aeruginosa (Pseudomonas aeruginosa; [4]) [millimeter]","inhibition zone, Bacillus Cereus (Bacillus cereus; [2]) [millimeter]","inhibition zone, Bacillus Cereus (Bacillus cereus; [3]) [millimeter]","inhibition zone, Bacillus Cereus (Bacillus cereus; [4]) [millimeter]","inhibition zone, Chrysosporium keratinophilum [1, 2] [millimeter]","inhibition zone, Chrysosporium keratinophilum [1, 3] [millimeter]","inhibition zone, Chrysosporium keratinophilum [1, 4] [millimeter]","inhibition zone, Staphylococcus aureus (Staphylococcus aureus; [2]) [millimeter]","inhibition zone, Staphylococcus aureus (Staphylococcus aureus; [3]) [millimeter]","inhibition zone, Staphylococcus aureus (Staphylococcus aureus; [4]) [millimeter]"
"O=C(O)c1cn(C2CC2)c2cc(N3CCNCC3)c(F)cc2c1=O [Cip., ciprofloxacin]",29,30,42,30,39,60,29,30,53,29,31,42,29,30,53,42,44,53
"O=C1N/C(=N/c2nc3ccccc3[nH]2)NC1(c1ccccc1)c1ccccc1 [Compound 3, 2-[(1H-benzimidazol-2-yl)imino]-5,5-diphenylimidazolidin-4-one]",18,23,35,27,36,50,25,32,43,18,24,38,24,29,49,16,20,30
